Assay: Superoxide-scavenging activity assessed as inhibition of formation of WST1 formazan

Row | Structure (SMILES) | IC50 [nM]
1 | C=C(C)C(O)CCC(C)(O)[C@H]1Oc2ccc(C(=O)/C=C/c3ccc(O)cc3)c(O)c2[C@@H]1O (relative stereo) [XANTHOKEISMINS C] | 1100
2 | O=C1O[C@H]([C@@H](O)CO)C(O)=C1O [ASCORBIC ACID] | > 40000
3 | CC(C)=CCC/C(C)=C/CC/C(C)=C/CO [FARNESOL] | > 40000
4 | O=C(/C=C/c1ccc(O)cc1)c1ccc(O)cc1O [ISOLIQUIRITIGENIN] | 15000
5 | Oc1ccc(/C=C/c2cc(O)cc(O)c2)cc1 [RESVERATROL] | 5300
6 | C=C(C)C(O)CC/C(C)=C/Cc1c(O)ccc(C(=O)/C=C/c2ccc(O)cc2)c1O (centres undefined) [XANTHOANGELOL B] | 920
7 | CC(C)=CCC/C(C)=C/Cc1c(O)ccc(C(=O)/C=C/c2ccc(O)cc2)c1O [XANTHOANGELOL] | > 40000
8 | C/C(=C\Cc1c(O)ccc(C(=O)/C=C/c2ccc(O)cc2)c1O)C/C=C/C(C)(C)O [XANTHOKEISMINS A] | 510
9 | CC(C)(O)/C=C/CC(C)(O)[C@H]1Oc2ccc(C(=O)/C=C/c3ccc(O)cc3)c(O)c2[C@@H]1O (some centres undefined) [XANTHOKEISMINS B] | 690

Reference: ChEMBL document CHEMBL1155023, “C-geranylated chalcones from the stems of Angelica keiskei with superoxide-scavenging activity” (J Nat Prod, 2008)
